We go through 1 compound from US6797077B2, “Latex paint remover” (Pentagonal Holdings, Inc., priority 2000, dated 2004).

“Also recorded” adds a separate entry of the source.

What all share (type): in vivo
Data set [1] in a line: Skin irritation, 16 CFR 1500.41 and 1500.3(c)(4). On the procedure:
(§1) A cleaning composition composed of pure IBIB was tested for toxicity, skin irritation and eye irritation according to the protocol of the Federal Hazardous Substances Act, 16 CFR 1500.3(c)(2)(i), 1500.41 and 1500.42.

A short description of data set [2]: Eye irritation, 16 CFR 1500.42 and 1500.3(c)(4). The protocol: as §1
The nature of data set [3]: Acute oral toxicity, Federal Hazardous Substances Act 16 CFR 1500.3(c)(2)(i). On the procedure: as §1

As to `CC(C)COC(=O)C(C)C` [IBIB, Isobutyl isobutyrate], the Skin irritation conclusion entry in data set [1] (16 CFR 1500.41) is “not considered to be a primary skin irritant”. Moreover, the “Primary Dermal Irritation Score (Average)” value in data set [1] (in vivo) came to 2.4. Also, the Eye irritation conclusion entry in data set [2] (16 CFR 1500.42) is given as “not considered to be a primary eye irritant”. For the same compound, the “Maximum Mean Total Score (Average)” value in data set [2] (eye irritation) was 3.3. Besides, the “Acute oral toxicity conclusion” value in data set [3] (16 CFR 1500.3(c)(2)(i)) was “non-toxic; also recorded: Not considered as toxic”. Moreover, the “Acute Oral LD50” value in data set [3] (dose level 5,000 mg/kg) is “Acute Oral LD50 greater than five (5) grams per gram body weight”.
